Pest or weed control data for 14 molecules are collected here from patent publication US8598365B2, “Herbicides” (Syngenta Limited, priority 2007, dated 2013).

Holding throughout (format): in vivo
The test system of assay [1] is Setaria faberi (SETFA). Briefly: Example B post-emergence herbicidal activity. Conditions: 312 h, rate 250 g/ha, evaluated after 13 days, read-out: Post-emergence activity SETFA (100=total damage to plant; 0=no damage to plant). The procedure:
(§1) Seeds of a variety of test species were sown in standard soil in pots. After cultivation for one day (pre-emergence) or after 8 days cultivation (post-emergence) under controlled conditions in a glasshouse (at 24/16° C., day/night; 14 hours light; 65% humidity), the plants were sprayed with an aqueous spray solution derived from the formulation of the technical active ingredient in acetone/water (50:50) solution containing 0.5% Tween 20 (polyoxyethelyene sorbitan monolaurate, CAS RN 9005-64-5).
(§2) The test plants were then grown in a glasshouse under controlled conditions in a glasshouse (at 24/16° C., day/night; 14 hours light; 65% humidity) and watered twice daily. After 13 days for pre and post-emergence, the test was evaluated (100=total damage to plant; 0=no damage to plant).
(§3) Alopecurus myosuroides (ALOMY), Avena fatua (AVEFA), Setaria faberi (SETFA), Echinochloa crus-galli (ECHCG), Solanum nigrum (SOLNI) and Amaranthus retoflexus (AMARE)

For assay [2], the system named is Avena fatua (AVEFA). As to the kind of experiment: Example B post-emergence herbicidal activity. Conditions: 312 h, rate 250 g/ha, evaluated after 13 days, read-out: Post-emergence activity AVEFA (100=total damage to plant; 0=no damage to plant). The procedure: as §1, §2, §3
Assay [3] relates to Alopecurus myosuroides (ALOMY). As to the kind of experiment: Example B post-emergence herbicidal activity. Conditions: 312 h, rate 250 g/ha, evaluated after 13 days, read-out: Post-emergence activity ALOMY (100=total damage to plant; 0=no damage to plant). The protocol:
as §1, §2, §3

Assay [4] has as its system Echinochloa crus-galli (ECHCG). As to the kind of experiment: Example B post-emergence herbicidal activity. The conditions noted are these: 312 h, rate 250 g/ha, evaluated after 13 days, read-out: Post-emergence activity ECHCG (100=total damage to plant; 0=no damage to plant). The procedure: as §1, §2, §3
Assay [5] has as its system Amaranthus retoflexus (AMARE). As to the kind of experiment: Example B post-emergence herbicidal activity. Conditions: Amaranthus retroflexus, 312 h, rate 250 g/ha, evaluated after 13 days, read-out: Post-emergence activity AMARE (100=total damage to plant; 0=no damage to plant). The protocol:
as §1, §2, §3

Assay [6] relates to Setaria faberi (SETFA). As to the kind of experiment: Example B pre-emergence herbicidal activity. Conditions: 312 h, rate 250 g/ha, evaluated after 13 days, read-out: Pre-Emergence Activity SETFA (100=total damage to plant; 0=no damage to plant). The protocol:
as §1, §2, §3

Assay [7] relates to Avena fatua (AVEFA). As to the kind of experiment: Example B pre-emergence herbicidal activity. The conditions noted are these: 312 h, rate 250 g/ha, evaluated after 13 days, read-out: Pre-Emergence Activity AVEFA (100=total damage to plant; 0=no damage to plant). The protocol: as §1, §2, §3
For assay [8], the system named is Alopecurus myosuroides (ALOMY). Briefly: Example B pre-emergence herbicidal activity. The conditions noted are these: 312 h, rate 250 g/ha, evaluated after 13 days, read-out: Pre-Emergence Activity ALOMY (100=total damage to plant; 0=no damage to plant). The procedure:
as §1, §2, §3

In assay [9] the test system is Echinochloa crus-galli (ECHCG). As to the kind of experiment: Example B pre-emergence herbicidal activity. The conditions noted are these: 312 h, rate 250 g/ha, evaluated after 13 days, read-out: Pre-Emergence Activity ECHCG (100=total damage to plant; 0=no damage to plant). The procedure:
as §1, §2, §3

The subject of assay [10] is Amaranthus retoflexus (AMARE). Briefly: Example B pre-emergence herbicidal activity. The conditions noted are these: Amaranthus retroflexus, 312 h, rate 250 g/ha, evaluated after 13 days, read-out: Pre-Emergence Activity AMARE (100=total damage to plant; 0=no damage to plant). The procedure:
as §1, §2, §3

`CC(=O)OC1=C(c2nc(-c3ccc(Br)cn3)sc2C)C(=O)[C@H]2CC[C@@H]1C2` [Compound P6]: the pest or weed control at 250 g/ha in [1] amounted to 100%; in assay [2], 80%; in [3], 90%; in assay [4], 100%; in assay [5], 0%; in assay [6], 100%. The pest or weed control at 250 g/ha was found to be 0% in [7], 20% in assay [8], 20% in assay [9] and 0% in [10].

Take `CCc1sc(-c2ccc(Cl)s2)nc1C1C(=O)[C@@H]2CC[C@@H](C2)C1=O` (stereo partly drawn) [Compound T36]: the pest or weed control at 250 g/ha in [1] turned out to be 100%; in assay [2], 20%; in [3] it was 90%; in [4], 100%; in assay [5], 0%; in [6] it was 70%. The pest or weed control at 250 g/ha worked out at 20% in assay [7], 60% in [8], 60% in assay [9] and 0% in assay [10].

As to `C=Cc1ccc(-c2nc(C3C(=O)[C@@H]4CC[C@@H](C4)C3=O)c(C)s2)cc1` (stereo partly drawn) [Compound T78], the pest or weed control at 250 g/ha in assay [1] came to 80%; in assay [2], 0%; in [3], 60%; in [4], 70%; in [5] it was 0%; in assay [6] it was 0%. For the same molecule, the pest or weed control at 250 g/ha in assay [7] amounted to 90%; in assay [8], 0%; in [9], 0%; in [10] it was 0%.

For the molecule `CCc1sc(COc2ccc(Cl)cc2)nc1C1C(=O)[C@@H]2CC[C@@H](C2)C1=O` (stereo partly drawn) [Compound T41], the pest or weed control at 250 g/ha is 100% in assay [1]; 70% in assay [2]; 100% in assay [3]; 100% in [4]; 0% in assay [5]; 40% in assay [6]. Besides, the pest or weed control at 250 g/ha was determined as 0% in assay [7], 80% in assay [8], 100% in assay [9] and 0% in assay [10].

For `Cc1sc(-c2ccc(Cl)s2)nc1C1C(=O)[C@@H]2CC[C@@H](C2)C1=O` (stereo partly drawn) [Compound T34], the pest or weed control at 250 g/ha in [1] was 90%; in [2], 0%; in assay [3], 70%; in assay [4], 80%; in [5], 0%; in [6] it was 20%. Besides, the pest or weed control at 250 g/ha in [7] came out at 0%; in assay [8] it was 20%; in [9], 20%; in [10], 0%.

For `Cc1sc(-c2ccc(Cl)cc2Cl)nc1C1C(=O)[C@@H]2CC[C@@H](C2)C1=O` (stereo partly drawn) [Compound T3], the pest or weed control at 250 g/ha in assay [1] was determined as 100%; in assay [2], 60%; in assay [3], 90%; in [4], 100%; in assay [5], 0%; in assay [6], 90%. For the same molecule, the pest or weed control at 250 g/ha worked out at 0% in assay [7], 60% in [8], 80% in [9] and 0% in assay [10].

On to `Cc1cnc(-c2ccc(Cl)cc2)nc1C1C(=O)[C@@H]2CC[C@@H](C2)C1=O` (stereo partly drawn) [Compound T88], for which the pest or weed control at 250 g/ha in assay [1] turned out to be 70%; in [2], 0%; in assay [3] it was 10%; in [4] it was 90%; in assay [5], 0%; in [6], 80%. The pest or weed control at 250 g/ha in assay [7] came to 0%; in [8] it was 0%; in [9], 60%; in [10] it was 0%.

For the molecule `Cc1sc(-c2ccc3c(c2)OCCO3)nc1C1C(=O)[C@@H]2CC[C@@H](C2)C1=O` (stereo partly drawn) [Compound T64], the pest or weed control at 250 g/ha in [1] came to 70%; in assay [2], 0%; in assay [3], 0%; in assay [4], 50%; in [5], 0%; in [6] it was 0%. In addition, the pest or weed control at 250 g/ha in assay [7] turned out to be 0%; in [8], 20%; in assay [9], 0%; in assay [10], 0%.

As for `O=C1C(c2cncc(Cl)c2)C(=O)[C@H]2CC[C@@H]1C2` (stereo partly drawn) [Compound T85], the pest or weed control at 250 g/ha in [6] turned out to be 0%; in assay [7] it was 0%; in assay [8], 0%; in [9], 0%; in assay [10], 30%.

Regarding `Cc1cc(-c2nc(C3C(=O)[C@@H]4CC[C@@H](C4)C3=O)c(C)s2)ccc1Cl` (stereo partly drawn) [Compound T4], the pest or weed control at 250 g/ha in assay [1] was found to be 80%; in assay [3] it was 60%; in assay [4], 100%; in assay [5] it was 0%; in [6], 30%; in assay [7], 0%. For the same molecule, the pest or weed control at 250 g/ha is 50% in [8], 60% in assay [9] and 0% in [10].

As for `Cc1sc(-c2cccc(Cl)c2Cl)nc1C1C(=O)[C@@H]2CC[C@@H](C2)C1=O` (stereo partly drawn) [Compound T62], the pest or weed control at 250 g/ha in [1] amounted to 60%; in [2], 0%; in assay [3], 0%; in assay [4], 0%; in assay [5] it was 0%.

Turning to `Cc1sc(-c2ccc(Cl)cc2)nc1C1C(=O)[C@H]2C[C@@H](C1=O)C2(C)C` (stereo partly drawn) [Compound T120], the pest or weed control at 250 g/ha in assay [1] came out at 90%; in [2] it was 60%; in assay [3] it was 40%; in assay [4], 100%; in [5] it was 0%.

Turning to `CCc1sc(-c2ccccc2OC)nc1C1C(=O)[C@@H]2CC[C@@H](C2)C1=O` (stereo partly drawn) [Compound T95], the pest or weed control at 250 g/ha in assay [1] was 80%; in [2], 30%; in assay [3] it was 80%; in assay [4] it was 70%; in assay [5], 0%.

`CCc1sc(-c2cccc(Cl)c2Cl)nc1C1C(=O)[C@@H]2CC[C@@H](C2)C1=O` (stereo partly drawn) [Compound T98]: the pest or weed control at 250 g/ha in assay [1] was determined as 70%; in assay [2], 0%; in [3] it was 20%; in assay [4] it was 70%; in [5] it was 0%.
